Data: patent publication US20050002904A1, “Uses of vascular endothelial growth factor and type I collagen inducible protein (VCIP)” (priority 2003, published 2005)
Marks after values point to notes of the source that are not given here.

Tested on: HEK cells stably expressing pLNCX2-VCIP-RGD (WT)
Test: Cell aggregation of HEK cells stably expressing VCIP constructs (Table 1)
Assay type: cell-based
Conditions: for size, speed of formation and number of cell aggregates: continuous presence, antibody 25-50 μl/ml, peptides 10-50 nM; for % cell aggregates: WT cells, 48 h, mean ± SD
Method: WT cells were also incubated with several peptides modeled after the VCIP-RGD region. When WT cells were cultured in the continuous presence of an anti-VCIP-RGD antibody (25-50 μl/ml) and NYRCRGDDSK (SEQ ID NO:20) (10-50 nM), the size, the speed of formation and the number of such cell aggregates were reduced (Table 1).

Row | Sequence | size, speed of formation and number of cell aggregates | % cell aggregates (substance 10 nM) [%] | % cell aggregates (substance 30 nM) [%] | % cell aggregates (substance 50 nM)
1 | NYRCRADDSK (CHAIN a peptide containing a mutated RGD sequence) | no reduction in cell aggregation | 92 ± 5.7 | 89 ± 7.5 | 90 ± 7.2^a %
2 | NYRCRGDDSK (CHAIN a peptide containing RGD sequence) | reduced | 67 ± 15.7 | 46 ± 13.3 | 28 ± 10.5^a %
3 | NYRCRGEDSK (CHAIN a peptide containing a mutated RGD sequence) | no reduction in cell aggregation |  |  | 
